# Experimental data taken from patent US7129213B2, “Tripeptides and tripeptide derivatives for the treatment of neurodegenerative diseases” (Neurotell AG, priority 2002, dated 2006).
# Structures can show the parent of a compound that is named as a salt. Where a SMILES comes first, the peptide text is derived from it.
# Tests used:
# hippocampal neurons = test: Gp120 model, neuronal count; type: in vivo, rat; conditions: CAIII layers, after ICV Gp120; 10 mg/kg/day
# Experimental: (§1) Day 21. Three days later (recovery from the postoperative shock), the 30 rats were randomly divided into three group of 10 animals each: • the first group of 10 rats received an intracarotid injection of 1 ml/kg/day of normal saline for a period of 10 days. • the second group of 10 rats received 10 mg/kg/day of HCl-Gly-Phe-ProNH2 (dissolved in normal saline) for a period of 10 days. • the third group received 20 mg/kg/day of HCl-Gly-Phe-ProNH2 under the same conditions. The injections were given between 9.00 and 9.30 a.m.
# Day 30. After the last learning session, the rats were sacrificed by means of decapitation, the brain was rapidly removed and frozen at […] in liquid nitrogen vapor. Brain sections were made by Cryocut at −20° C.
# The sections are defrosted and stained with neutral red. After fixation, the number of neurons on one slice of the hippocampus was measured. The method is standardized by counting the neurons on the same slice. An index of the number of neurons compared to a control rat allows for a more reliable quantification than the simple counting.
# The neurons are counted in the CAIII layers of the hippocampus. […] By definition, the value found in the control animals is 100 with a maximum variation of 5%.
# [1] = test system: type II glucocorticoid receptors in the hippocampus; test: Dexamethasone model, determination of the corticoid receptors; type: in vivo, rat; conditions: rats pretreated by dexamethasone, 20 mg/kg/day 10 days
# Experimental: (§2) 20 rats were orally administered 50 mg/kg/day of dexamethasone over a period of 21 days. At Day 19, the animals were chloralized (360 mg/kg), and a catheter was placed into the carotid artery as described above. At Day 21, the animals were randomly divided into two groups: • one group of 10 rats received an intracarotid injection of 1 ml/kg/day of normal saline for a period of 10 days (controls). • one group of 10 rats received 20 mg/kg/day of HCl-Gly-Phe-PrONH2 dissolved in normal saline for a period of 10 days. The injections were given at 9.00 a.m.
# After the last learning session at 11.00 a.m., the rats were sacrificed by means of decapitation, and the hippocampi were quickly removed and put on a plate cooled to 0° C. The number of glucocorticoid receptors was determined by a binding method using a labeled corticoid and a specific inhibitor to the binding of the corticoid to the receptor (here a total agonist). The protein content was measured by Lowry's method.
# The hippocampi of each rat were homogenized in 2 ml of sodium EDTA Glycerol molybdate buffer. […] An aliquot of the supernatant was diluted in distilled water, and the protein content was measured by Lowry's method. […]
# After one night of incubation at 4° C., charcoal/dextran was added to absorb […] dexamethasone. After centrifugation, the radioactivity of the supernatant was measured by liquid scintillation. […]
# [2] = test system: rats pretreated with orally administered dexamethasone; test: Dexamethasone model, sound avoidance conditioning; type: in vivo, rat
# Experimental: as §2
# During the last five days of treatment, the rats were placed under the common learning conditions of the three models between 10.00 a.m. and 11.00 a.m. (see below).
# (§3) During the last five days of treatment, at 10.00 a.m. (1 hour after the administration of HCl-Gly-Phe-ProNH2), the animals were placed into a learning cage for sound avoidance conditioning (Conditioning avoidance response). The animals learned to climb a pole first to escape from and then to avoid an electric shock. This method was standardized and quantified in our laboratory (see Le Poncin M., Lafitte J. C., Rapin J. R., Sound Avoidance Conditioning and a Mathematical approach to the description of acquisition performance, Math. Biosciences 59 (1982) 242–268).
# (§4) For a period of five days, the animals were placed everyday under these learning conditions for a total of ten tests a day. Results are expressed as percentage of adequate responses, and the kinetics of the responses is represented by a multi-exponential maximum curve.
# (§5) The curve maximum represents the learning capacities. The slope of the curve evaluates the learning speed. The area under the curve (AUC) represents a good evaluation of all conditioning parameters. The maximum value of the area under the curve is 500, if the animals show 100% adequate responses as early as Day 0. In fact, an average area under the curve is calculated per day, what amounts to a maximum value of 100. In the absolute control animals, this average area under the curve is equal to 40+/−4.
# [3] = PAMPA
# Excerpt: The Parallel Artificial Membrane Permeation Assay system (PAMPA) is a simple and fast method for the prediction of gastrointestinal drug absorption. Drug permeation of biological cell layers is mainly related to passive diffusion processes. The PAMPA method measures the permeation of potential new drugs across an artificial membrane by passive diffusion and allows a classification into low, medium and high absorbers.
# The artificial membrane was built up by pipetting a solution of lecithine in organic solvent on a supporting filter material in 96-well plates. For all test compounds, stock solutions of 5 mM were prepared in ethanol. They were then diluted in Tris-buffer (0.05 M, pH 7,4) to a final concentration of 500 μM. Permeation rates of all test compounds were measured in triplicate or quadruplicate. Diffusion time across the artificial membrane was 16 h. For all compounds reference values without phospholipid layer were individually determined. Concentrations in the acceptor compartments were measured by UV difference spectroscopy using a microtiter plate reader Spectramax Plus^384 from Molecular Devices. For each compound the λmax values were determined in a previous run and measurements were performed at this wavelength. The permeation rates are expressed as flux rates, which are calculated according to the following formula: flux (%)=OD (test well)/OD (control well)×100. […] Lucifer Yellow, a non-permeating dye, has been applied to each well postexperimentally and the concentration of the marker measured in a Wallac Victor^2 1420 Multilabel Counter. Wells, in which the concentration of Lucifer Yellow exceeded 1% of the amount detected in the control wells (without artificial membrane) were discarded.
# [4] = test system: rat treated by Gp120 as intracerebroventricular injection; test: Gp120 model, sound avoidance conditioning; type: in vivo; conditions: for AUC (average area under the learning curve per day) / percentage of adequate responses D0 / percentage of adequate responses D3 / percentage of adequate responses D4: Gp120 ICV; for percentage of adequate responses D0: learning day D0; for percentage of adequate responses D3: learning day D3; for percentage of adequate responses D4: learning day D4
# Experimental: Day 0. The animals were slightly anesthetized by ether, an incision was made into the skin of the skull, and the skull was pierced by means of a dental burr. A metal needle was stereotaxically directed to the lateral ventricle, and then fixed by means of dental cement. Every day of the experiment, the patency of the needle was controlled.
# Day 3. Three days after introducing the needle (recovery from the postoperative shock) the animals received an intra-ventricular injection of 10 nM/kg/day of Gp120 (dissolved in normal saline) in a volume of 20 μl. This administration was repeated daily for a period of five days.
# Day 18. Ten days after the last administration of Gp120, the rats were chloralized (360 mg/kg). A permanent floating catheter was retrogradely introduced into the common carotid artery. This catheter left again on the top of the skull, where it was fixed.
# as §1
# Day 26 to 30. The animals of all three groups were placed under the common learning conditions of the entire protocol. The learning sessions took place between 10.00 a.m. and 11.00 a.m.
# as §3, §4, §5
structure (smiles),measurement,setting,value
"NCC(=O)N[C@@H](Cc1ccccc1)C(=O)N1CCC[C@H]1C(N)=O [HCl-Gly-Phe-ProNH2, glycyl-L-phenylalanyl-L-prolineamide] (H-Gly-Phe-Pro-NH2)","Counting of the hippocampal neurons (index, control animals = 100)",hippocampal neurons,46 +/− 4
same,type II glucocorticoid receptors in the hippocampus,[1],**73 +/− 4 femtomols/mg of proteins
same,type II glucocorticoid receptors in the hippocampus,[1]; listed as HCL-GLY-PHE-PRONH2,reduces the down regulation of the glucocorticoid receptors
same,percentage of adequate responses D0,"[2]; dexamethasone 50 mg/kg/day oral 21 days, 20 mg/kg/day 10 days, learning day D0",0%
same,effect on learning capacities,[2]; dexamethasone model,partially restores the learning capacities
same,AUC (average area under the learning curve per day),"[2]; dexamethasone model, 20 mg/kg/day 10 days",**35.0 +/− 3.1
same,percentage of adequate responses D1,"[2]; dexamethasone model, 20 mg/kg/day 10 days, learning day D1",7 +/− 2%
same,percentage of adequate responses D2,"[2]; dexamethasone model, 20 mg/kg/day 10 days, learning day D2",**29 +/− 5%
same,percentage of adequate responses D3,"[2]; dexamethasone model, 20 mg/kg/day 10 days, learning day D3",**57 +/− 4%
same,percentage of adequate responses D4,"[2]; dexamethasone model, 20 mg/kg/day 10 days, learning day D4",**75 +/− 3%
same,"PAMPA classification, predicted absorption after peroral application",[3],weakly absorbed
same,AUC (average area under the learning curve per day),[4]; 10 mg/kg/day 10 days,**23.8 +/− 4.1
same,percentage of adequate responses D0,[4]; 10 mg/kg/day 10 days,0%
same,percentage of adequate responses D3,[4]; 10 mg/kg/day 10 days,**35 +/− 4%
same,percentage of adequate responses D4,[4]; 10 mg/kg/day 10 days,**55 +/− 7%
same,AUC (average area under the learning curve per day),[4]; 20 mg/kg/day 10 days,**29.6 +/− 3.0
same,percentage of adequate responses D0,[4]; 20 mg/kg/day 10 days,0%
same,percentage of adequate responses D3,[4]; 20 mg/kg/day 10 days,**48 +/− 5%
same,percentage of adequate responses D4,[4]; 20 mg/kg/day 10 days,**70 +/− 5%
same,effect on learning parameters,"[4]; Gp120 model, 10 and 20 mg/kg",restores the capacities of the animal depending on the dose
